Experimental data from PubChem BioAssay (NCI).
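In this assay, cells in 96-well plates receive the compound at five concentrations for 48 hours. Endpoints are linearly interpolated between the surrounding concentrations. GI50 is the concentration that inhibits growth by half. TGI marks complete inhibition of growth.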

What was measured:
Assay in all cases: growth of human tumour cells (NCI), 48 h
HCT-116 colon = tested on: HCT-116 colon
SF-268 CNS = tested on: SF-268 CNS
NCI-H460 lung = tested on: NCI-H460 lung
COLO 205 colon = tested on: COLO 205 colon
A549 NSCLC = tested on: A549 NSCLC
HT29 colon = tested on: HT29 colon
HCT-15 colon = tested on: HCT-15 colon
UACC-257 melanoma = tested on: UACC-257 melanoma
OVCAR-8 ovarian = tested on: OVCAR-8 ovarian
IGROV1 ovarian = tested on: IGROV1 ovarian

SMILES	GI50 (HCT-116 colon) [µM]	TGI (HCT-116 colon) [µM]	GI50 (SF-268 CNS) [µM]	TGI (SF-268 CNS) [µM]	GI50 (NCI-H460 lung) [µM]	TGI (NCI-H460 lung) [µM]	GI50 (COLO 205 colon) [µM]	TGI (COLO 205 colon) [µM]	GI50 (A549 NSCLC) [µM]	TGI (A549 NSCLC) [µM]	GI50 (HT29 colon) [µM]	TGI (HT29 colon) [µM]	GI50 (HCT-15 colon) [µM]	TGI (HCT-15 colon) [µM]	GI50 (UACC-257 melanoma) [µM]	TGI (UACC-257 melanoma) [µM]	GI50 (OVCAR-8 ovarian) [µM]	TGI (OVCAR-8 ovarian) [µM]	GI50 (IGROV1 ovarian) [µM]	TGI (IGROV1 ovarian) [µM]
O=C1c2cc3c(cc2-c2c1c1cc(Cl)c(Cl)cc1c(=O)n2CCCn1ccnc1)OCO3	< 0.01	17.6	< 0.01	> 100	< 0.01	> 100	< 0.01	> 100	< 0.01	> 100	< 0.01	> 100	0.0257	> 100	0.0122	1.31	< 0.01	> 100	0.0295	> 100
COc1ccc(N(C)c2nc(C)nc3ccccc23)cc1	< 0.01	> 36	< 0.01	> 34	< 0.01	–	< 0.01	< 0.01	< 0.01	> 100	< 0.01	–	< 0.01	> 100	11.3	27	< 0.01	> 63.1	< 0.01	> 100
NNC(=O)/C(=C/c1cccc([N+](=O)[O-])c1)NC(=O)c1ccccc1	–	> 100	–	> 100	–	> 100	–	> 100	–	> 100	–	> 100	–	> 100	–	> 100	–	> 100	–	> 100
O/N=C1/C(=C/c2ccc(F)cc2)CCCC1C(NO)c1ccc(F)cc1 (stereo not drawn)	–	> 100	–	> 100	–	> 100	–	> 100	–	> 100	–	45.2	–	> 100	–	64.5	–	> 100	–	> 100
COc1ccccc1C(=O)/C=C/c1cc2cccc(OC)c2[nH]c1=O	< 0.0225	0.632	0.0935	2.06	0.0243	0.524	0.0481	1.43	0.069	12.6	< 0.0131	4.02	0.027	1.73	1.63	9.26	0.0392	15	0.0523	2.36
C[C@@H](c1ccc2nccn2c1)n1nnc2ncc(-c3cnn(C)c3)nc21	> 100	> 100	> 100	> 100	> 100	> 100	> 100	> 100	> 100	> 100	> 100	> 100	> 100	> 100	> 100	> 100	> 100	> 100	> 100	> 100
CCCCCCC(=O)C/C(CCC(=O)N(Cc1ccccc1)Cc1ccccc1)=N\Nc1ccc([N+](=O)[O-])cc1[N+](=O)[O-]	–	> 100	–	> 100	–	> 100	–	> 100	–	> 100	–	> 100	–	> 100	–	> 100	–	> 100	–	> 100
COc1cc(C2C(Cl)C(=O)N2n2cnc3ccccc3c2=O)cc(OC)c1OC (stereo not drawn)	–	> 100	–	> 100	–	> 100	–	> 100	–	> 100	–	> 100	–	> 100	–	> 100	–	> 100	–	> 100
CCOP(=O)(OCC)C1C(=O)O[C@H]2CCCC[C@@H]12 (stereo partly drawn)	–	> 100	–	> 100	–	> 100	–	> 100	–	> 100	–	> 100	–	> 100	–	> 100	–	> 100	–	> 100
OB([O][Hg][c]1ccccc1)[O][Hg][c]1ccccc1	0.161	0.307	1.06	2.5	0.589	3.06	0.502	1.46	1.83	4.64	0.384	1.75	0.141	0.354	0.317	1.14	0.522	3.53	0.0949	0.401
CCCCN(CCCC)C(=O)C(=O)CC(=O)c1ccc(Br)cc1	–	> 100	–	> 100	–	> 100	–	> 100	–	> 100	–	> 100	–	> 100	–	> 100	–	> 100	–	> 100
CC1=C(C(=O)Nc2ccccc2)C(c2ccc3c(c2)OCO3)C(C(=O)Nc2ccccc2)=C(C)N1	–	–	–	> 100	–	> 100	–	> 100	–	> 100	–	> 100	–	> 100	–	> 100	–	> 100	–	> 100
O=S(=O)(c1ccc(NC(=S)N/N=C/c2ccccc2O)cc1)N1CCCCC1	–	7	–	6.9	–	–	–	36.5	–	> 31.7	–	> 68.8	–	18.4	–	14.5	–	14.9	–	> 50.4
COc1cc2cc(Oc3ccc(NC(=O)Nc4cccc(C(F)(F)F)c4)cc3)c(C)nc2cc1OCCN1CCCCC1	–	–	–	–	1.83	3.37	–	–	–	–	–	–	–	–	1.86	3.48	–	–	–	–
C1CCC([PH+](C2CCCCC2)C2CCCCC2[PH+](C2CCCCC2)C2CCCCC2)CC1.[Au].[CH-]1CCCCC1C1CCCC[N-]1 (stereo not drawn)	–	–	–	–	–	–	–	–	–	–	–	–	1.5	3.03	0.329	2.24	0.278	> 100	–	–
CC12OC(C(=O)C13CC3)C1C(=O)c3ccccc3C(=O)C12 (stereo not drawn)	34	> 100	19.2	46.2	29.9	> 100	89	> 100	37.2	> 100	48.7	> 100	–	–	27.7	68.8	20.3	48.4	23.1	65.9
CC1=COC(=O)c2ccccc2N1	–	> 100	–	> 100	–	> 100	–	> 100	–	> 100	–	> 100	–	> 100	–	–	–	> 100	–	> 100
COc1cc2c3c(n(C)c(=O)c2cc1OC)-c1cc2c(cc1/C3=C\CCCCN)OCO2	–	–	–	–	5.02	> 100	27.5	> 100	6.26	27.4	7.45	> 100	25.1	> 100	12.5	35.7	3.77	14.2	3.12	8.53
CCOC(=O)Cc1c(Cc2[nH]c(C(=O)OCc3ccccc3)c(CC(=O)OCC)c2CC(=O)OCC)[nH]c(C(=O)OCc2ccccc2)c1CC(=O)OCC	–	> 100	–	> 100	–	–	–	> 100	–	> 100	–	> 100	–	> 100	–	–	–	> 100	–	> 100

SMILES	GI50 (HCT-116 colon) [µM]	TGI (HCT-116 colon) [µM]	GI50 (SF-268 CNS) [µM]	TGI (SF-268 CNS) [µM]	GI50 (NCI-H460 lung) [µM]	TGI (NCI-H460 lung) [µM]	GI50 (COLO 205 colon) [µM]	TGI (COLO 205 colon) [µM]	GI50 (A549 NSCLC) [µM]	TGI (A549 NSCLC) [µM]	GI50 (HT29 colon) [µM]	TGI (HT29 colon) [µM]	GI50 (HCT-15 colon) [µM]	TGI (HCT-15 colon) [µM]	GI50 (UACC-257 melanoma) [µM]	TGI (UACC-257 melanoma) [µM]	GI50 (OVCAR-8 ovarian) [µM]	TGI (OVCAR-8 ovarian) [µM]	GI50 (IGROV1 ovarian) [µM]	TGI (IGROV1 ovarian) [µM]
O=C1C2=C(c3ccccc31)C(c1ccc(Cl)cc1)N1C(=O)CCSC1=N2 (stereo not drawn)	–	> 100	–	> 100	–	–	–	> 100	–	> 100	–	> 100	–	> 100	–	> 100	–	–	–	> 100
Cc1ccc(S(=O)(=O)N/N=C/C(Br)=C(/Br)C(=O)O)cc1	–	–	–	30.2	–	44.4	–	13.3	–	50.2	–	26.8	–	8.67	–	26.8	–	9.93	–	34.7
O=C1C2CC(Cl)C(SSC3CC4C(=O)N(SC(Cl)(Cl)C(Cl)Cl)C(=O)C4CC3Cl)CC2C(=O)N1SC(Cl)(Cl)C(Cl)Cl (stereo not drawn)	–	7.38	–	3.91	–	13.4	–	4.87	–	28.3	–	–	–	–	–	5.79	–	3.5	–	3.06
Cc1ccc2c(c1)NC(c1ccc(C(=O)O)cc1)c1cccn1-2 (stereo not drawn)	–	> 100	–	–	–	> 100	–	> 100	–	> 100	–	> 100	–	> 100	–	> 100	–	–	–	–
COC(=O)Nc1nc2ccc(C(=O)c3ccc[nH]3)cc2[nH]1	–	> 100	–	> 100	–	> 100	–	> 100	–	> 100	–	> 100	–	> 100	–	–	–	> 100	–	> 100
Cn1nc(-c2ccccc2NC(=O)C(F)(F)F)c(=O)n(C)c1=S	–	> 100	–	56	–	64.1	–	–	–	> 100	–	53.8	–	–	–	–	–	67.7	–	> 100
COc1ccc(-c2oc3cc(O)c(OC)c(O)c3c(=O)c2OC2OC(CO)C(O)C(O)C2O)cc1 (stereo not drawn)	–	> 100	–	–	–	> 100	–	> 100	–	> 100	–	> 100	–	> 100	–	–	–	> 100	–	> 100
Cn1ncc2cc3c(Nc4ccc(Cl)cc4)cccc3nc21	–	–	–	> 100	–	32	–	28.1	–	85.3	–	–	–	37.5	–	38.3	–	76.1	–	38.8
CC(=O)O[C@H]1C(=O)[C@@]2(C)C([C@H](OC(=O)c3ccccc3)[C@]3(O)C[C@H](OC(=O)[C@H](O)[C@H](NC(=O)c4ccccc4)c4ccc(Cl)cc4)C(C)=C1C3(C)C)C1(OC(C)=O)CO[C@@H]1C[C@@H]2O (stereo partly drawn)	–	–	–	–	–	–	–	0.00842	–	24.4	–	–	0.0583	> 100	–	–	–	61.9	–	–
O=C(O)CN(c1ccc(Cl)cc1)S(=O)(=O)c1ccccc1	–	–	–	> 100	–	> 100	–	> 100	–	> 100	–	> 100	–	> 100	–	> 100	–	> 100	–	> 100
Cc1ccc(-c2c(C#N)c(N)nc(N3CCOCC3)c2C#N)o1	33.5	> 100	> 100	> 100	43.3	> 100	–	–	57.1	> 100	30.1	> 100	–	–	99.8	> 100	72.6	> 100	21.6	59.6
N[C@H]1C2C3CC4C5CC(C42)C1(c1ccccc1)C53 (stereo partly drawn)	–	> 100	–	> 100	–	> 100	–	> 100	–	> 100	–	> 100	–	> 100	–	–	–	> 100	–	> 100
COc1cccc(NC(=O)c2sc3nc4c(cc3c2N)CCCC4)c1	0.475	> 100	0.714	37	0.474	> 100	3.83	> 100	0.58	> 100	–	–	0.387	> 100	0.727	> 100	2.58	> 100	4.1	> 100
ClC(=Nc1cccc2ccccc12)N(c1ccccc1)c1ccccc1	–	> 100	–	–	–	90.8	–	–	–	> 100	–	> 100	–	> 100	–	> 100	–	–	–	> 100
Nc1ccn(C=C=CCO)c(=O)n1	> 1000	> 1000	> 1000	> 1000	–	–	> 1000	> 1000	> 1000	> 1000	> 1000	> 1000	> 1000	> 1000	> 1000	> 1000	–	> 1000	> 1000	> 1000
COc1ccc(/C(=C/c2cc(OC)c(OC)c(OC)c2)[N+](=O)[O-])cc1	–	–	1.79	3.64	2.24	5.23	1.79	3.74	3	10.3	3.68	8.98	1.63	3.54	1.67	3.48	2.67	8.12	1.8	3.94
COC1C=C(Nc2cccc(Cl)c2)C(=O)C1 (stereo not drawn)	–	> 100	–	> 100	–	> 100	–	22.1	–	41.2	–	> 100	–	–	–	> 100	–	> 100	–	> 100
CC(=O)Oc1c(C)n(CCCl)ccc1=O	–	> 100	–	> 100	–	> 100	–	> 100	–	> 100	–	> 100	–	> 100	–	> 100	–	> 100	–	–
